Row | SMILES | melting point
1 | CC(C)(O)C(=O)CC(=O)c1ccc(C(=O)CC(=O)C(C)(C)O)cc1 | 276 to 278 °C
2 | Nc1cccc(-c2ccc(CCN3CCC4(CC3)NC(=O)N(CCc3ccccc3)C4=O)cc2)n1 | 176 to 180 °C
3 | O=C(Nc1ccc(-n2nc(C(F)(F)F)cc2OC(F)F)cc1)c1cccc(F)c1F | 154 to 155 °C
4 | COC(=O)C(C(=O)Nc1ccc(F)cc1)=C1SCS1 | 141 to 142 °C
5 | Cc1nc(C(Br)Br)nc(C(Br)Br)n1 | 87 to 88.5 °C
6 | Cc1nc2cccc(CCN3CCC(c4noc5cc(F)ccc45)CC3)c2c(=O)[nH]1 | 164 to 165 °C
7 | CCC1(CC)CN(C(C)(C)C)C(=O)C(C)(CC)N1OC(C)(C)C#N (stereo not given) | 78 to 80 °C
8 | O=C(O)C(Cl)(Cl)Cc1ccccc1 | 173 to 176 °C
9 | NS(=O)(=O)NCC1COc2ccccc2O1 (stereo not given) | 97.5 to 98.5 °C
10 | CN1CCC(c2ccccc2)(C(C)(C)O)CC1 | 146 to 147 °C
11 | CC1(C=O)CC1(c1cccc(F)c1)c1cccc(F)c1 (stereo not given) | 92 to 93 °C
12 | CCCCCCCCCCn1c(=S)nc2cc(Cl)ccn2c1=S | 153 to 155 °C
13 | O=C(O)CON(Cc1ccc(F)cc1)C(=O)C=C(O)C(=O)O | 135 to 138 °C
14 | Nc1cccc2snnc12 | 67 °C
15 | CCCCCCSCC(O)COc1cccc2oc(C(=O)O)cc(=O)c12 (stereo not given) | 97 to 100 °C
16 | CC1(C)N=C(n2ccccc2=O)c2cc(C#N)ccc2O1 | 115 to 116 °C
17 | CCCN(CCC)C(=O)n1cnc(S(=O)(=O)CC(C)C)n1 | 62 to 63.5 °C
18 | Cc1nc[nH]c1CSCCNc1nc(C)c(-c2ccccc2)c(=O)[nH]1 | 216 to 218 °C
19 | N#Cc1cc(C=C2SC(=S)NC2=O)cc(O)c1O | > 350 °C
20 | Cc1c(Cc2ccccc2)c(=O)n(C2CCCC2)c2nc(Nc3ccc(N4CCNCC4)cc3)ncc12 | 114 °C
21 | Cn1cc(CO)c(=O)c2ccc(F)cc21 | 219 to 222 °C
22 | CCOC(CNC(=C[N+](=O)[O-])SC)OCC | 73 to 73.5 °C
23 | CC(C)(Oc1ccc([Si](C)(C)C)cc1)C(=O)O | 92 to 93 °C
24 | CSc1ccc(CC2C(C)=Cc3cc(F)ccc32)cc1 (stereo not given) | 58 to 59 °C
25 | CCOC(=O)c1cnc2ccc3nc(Cl)sc3c2c1Cl | 143 to 146 °C

Row | SMILES | melting point
26 | N#CSc1ccc([N+](=O)[O-])cc1C(Cl)(Cl)Cl | 72 °C
27 | Cc1ccc(-c2ccc(Cl)c(C(=O)NCC34CC5CC(CC(C5)C3)C4)c2)nc1C(=O)O | 180 to 185 °C
28 | CN1C[C@H](CN2CCC(O)(c3ccc(Cl)cc3)CC2)C=C2c3cccc4c3c(cn4C)C[C@H]21 | 101 to 107 °C
29 | CCOC(=O)COc1coccc1=O | 58 to 60 °C
30 | COc1cc(-c2nc3ccccc3n2Cc2ccccc2C(F)(F)F)cc(OC)c1OC | 144 °C
31 | COc1ccccc1N1CCN(CCNC(=O)c2cccc(OC)c2OC)CC1 | 133 to 134 °C
32 | CCN(CC)CCCOc1ccc(NC(=O)c2ccccc2)cc1NC(=O)c1ccccc1 | 139 to 140 °C
33 | CNC(=O)OC(C)C(=O)Nc1ccc(C2=NNC(=O)CC2C)cc1 (stereo not given) | 96 to 98 °C
34 | CC(C)CCN1C(=O)C(NC(=O)Oc2ccccc2)C(=O)N(c2ccccc2)c2ccc(F)cc21 (stereo not given) | 160 to 165 °C
35 | CN(c1ccc(Cl)cc1)S(=O)(=O)c1cccc(C(=O)Nc2ccc(Br)cc2F)c1 | 126 to 127 °C
36 | COc1cc(OC)c(OC)c(-c2ccc(N(C)CCN(C)c3ccc(-c4cc(OC)cc(OC)c4OC)nc3)cn2)c1 | 171 to 172 °C
37 | Cc1c(C)c2c(c(C)c1N)C(c1ccc(C(C)C)cc1)C(C)(C)O2 (stereo not given) | 130 to 132 °C
38 | COc1cc(C=O)cc2c(N(C)C)cc(C)nc12 | 127 to 129 °C
39 | O=Cc1ccc(CN2C(=O)c3ccccc3C2=O)c(Cl)c1 | 123 to 126 °C
40 | CN1C(=O)C(C(=O)Nc2ccc(Cl)c(Cl)c2)S(=O)(=O)c2cc(Cl)ccc21 (stereo not given) | 176 to 178 °C
41 | CCCc1nc2cnc3cc(Br)ccc3c2n1CC1CCN(C(=O)OC(C)(C)C)CC1 | 215 to 216 °C
42 | Cn1nc2c(N)nc3ncccc3c2c1CC(C)(C)C | 323 to 326 °C
43 | CCC(=O)NCCC1CCc2ccn3nccc3c21 (stereo not given) | 72 to 73 °C
44 | CN1CCC2(CC1)CNc1cc(Cl)ccc12 | 172 to 173 °C
45 | O=C1C=CC(O)(C(F)(F)F)C=C1 | 84 to 86 °C
46 | COc1ccccc1C1(N)C(=O)Nc2ccc(Cl)cc21 (stereo not given) | 220 to 224 °C
47 | Cc1oc(-c2ccccc2)nc1COc1ccc(COc2ncccc2CC(=O)O)cc1 | 144 to 145 °C
48 | CCCCCCCCCCCCc1nnn(C(C(=O)Nc2c(OC)cc(OC)cc2OC)c2ccccc2)n1 (stereo not given) | 141 to 145 °C
49 | O=C(Nc1cccc(C2CN3CCSC3=N2)c1)c1ccc(Br)nc1 (stereo not given) | 149 to 153 °C
50 | Cc1ccc2cc(-c3ccc4ccc5cccc6ccc3c4c56)ccc2n1 | 133 °C

Row | SMILES | melting point
51 | COc1ccccc1N1CCN(CC(O)COc2ccc(OCc3ccccc3)c3ccccc23)CC1 (stereo not given) | 143 to 145 °C
52 | COc1cc2c3c(c1)nc(-c1ccccc1)n3CCC2=NO | 235 to 238 °C
53 | CCCOc1ccc(S(=O)(=O)Nc2ccc3[nH]ncc3c2)cc1-c1nc2cc(N)c([N+](=O)[O-])cc2c(=O)[nH]1 | 261 to 263 °C
54 | COc1ccc(CCOc2ccnc(Cl)c2)cc1OC | 116 to 117 °C
55 | CCOCc1nc2c(N)nc(C)c(C)c2n1CCCON=C(C)C | 123 to 125 °C
56 | Cc1ccc(C2=NN(c3ccccc3)C(=O)C2)cc1 | 112 to 113 °C
57 | CCc1cn2c(N)c(Cl)cc(C(=O)NCC3CCN(CCc4ccc(C(C)(C)C)cc4)CC3)c2n1 | 220 °C
58 | CC(C)(C)c1cc(C(=O)OCc2ccc(C(=O)OCc3ccccc3)cc2)cc(C(C)(C)C)c1O | 110 to 111 °C
59 | OCCCNC1=Nc2ccccc2C1(O)c1ccccc1 (stereo not given) | 215 to 217 °C
60 | CN(C)C(=O)C=Cc1ccc(C=CC(=O)N(C)C)cc1 | 247 °C
61 | CCC(CC)C(NS(=O)(=O)c1ccc(Cl)s1)c1ccnn1S(=O)(=O)c1ccc(C)cc1 (stereo not given) | 146 to 148 °C
62 | CCOC(=O)c1cccc(-c2c(C)c(NC(=O)CC(C)(C)C)c(C)c3c2OCC3c2ccc(C(C)C)cc2)c1 (stereo not given) | 175 to 177 °C
63 | O=[N+]([O-])c1ccc(Oc2ccccc2)nc1 | 84 to 86 °C
64 | COc1ccc(Cn2nnnc2C(O)c2ccccc2Cl)cc1 (racemic) | 128 to 130 °C
65 | COC(=O)c1ccc(Oc2ccc(NC(=O)c3ccc([N+](=O)[O-])cc3Br)cc2NC(=O)c2ccc([N+](=O)[O-])cc2Br)cc1C(=O)OC | 138 to 142 °C
66 | Cc1ccc(S(=O)(=O)OCC2CCc3cc(C#N)ccc3C2)cc1 (stereo not given) | 100 to 102 °C
67 | CC(CC=CC=CCC(=O)O)C1CCC2C3CCC4CC(O)CCC4(C)C3CC(O)C12C (stereo not given) | 208 to 211 °C
68 | CC(=O)c1ccc2c(c1)C(C)c1cc(C(C)=O)ccc1-2 | 128 to 129 °C
69 | CC(=O)c1ccc(Cc2ccc(F)cc2)o1 | 27 to 29 °C
70 | Nc1ccc(C(=O)c2cccnc2)cc1 | 107 °C
71 | CNC(=O)N1CCC(Oc2c(F)c(F)c(F)c(F)c2F)CC1 | 107 to 110 °C
72 | CCc1nn2c(-c3cccc(C(F)(F)F)c3)c(C)cnc2c1C#N | 163 to 164 °C
73 | CC(C)(C)CC(C)(C)C(CCC(=O)O)CC(=O)O (stereo not given) | 135 to 137 °C
74 | CCCCS(=O)(=O)Cc1ccc(C(=O)Nc2ccc3cc(CN4CCCC4)cnc3c2C)cc1 | 199 °C
75 | C(=CCON(Cc1ccccc1)Cc1ccccc1)CON(Cc1ccccc1)Cc1ccccc1 | 82 to 85 °C

Row | SMILES | melting point
76 | CN1C(C(=O)Nc2cccccc2=O)=C(O)c2ccccc2S1(=O)=O | 259 to 261 °C
77 | CC(C)(C)OC(=O)c1ncn2c1C(C)(C)N(C(=O)N1CCCC1)c1cc(F)ccc1-2 | 168 to 170 °C
78 | CCOCc1nc2c(N)nc3ccccc3c2n1CCCCS(=O)(=O)NC(C)C | 146 to 147 °C
79 | COc1ccc(/C=C(\C#N)c2ccc(C(F)(F)F)cc2)cc1OC1CCCC1 | 96 to 99 °C
80 | Cc1nn(C2=C(F)CC(F)(C#N)C=C2)c(=O)[nH]c1=O (stereo not given) | 214 °C
81 | O=C(O)CCCOc1ccc(C(=O)c2ccc(F)cc2)cc1 | 109 to 111 °C
82 | Nc1ccc2cccc(Oc3cc(-c4ccc(C(F)(F)F)cc4N)ncn3)c2n1 | 233 to 234 °C
83 | COC(=O)CCc1cc2nc(Cl)ccc2n1S(=O)(=O)c1cc(OC)ccc1OC | 127 °C
84 | COC(=O)C1=C(C)Nc2cc[nH]c(=O)c2C1c1ccccc1C(F)(F)F (stereo not given) | 295 °C
85 | CC(=O)Cc1ccc2c(c1)Cc1cccnc1O2 | 124 to 125 °C
86 | CC(C)COc1ccccc1-c1ncc(-c2nnn[nH]2)c(=O)[nH]1 | 230 to 231 °C
87 | CCCc1c(OCCCSc2ccc(CC(=O)O)cc2Cl)ccc2c(-c3ccccc3)coc12 | 143 °C
88 | Cc1cc(C)c(C(C)(CO)c2ccc(C(C)C)cc2)c(O)c1C (stereo not given) | 116 to 117 °C
89 | Cn1ncc2nc3c(c(O)c21)CCCC3 | > 300 °C
90 | COC(=O)CCc1cc2cc(Cl)ccc2n1S(=O)(=O)c1ccc(C(C)(C)C)cc1 | 130 to 133 °C
91 | N#Cc1cnn(Cc2ccccc2)c1 | 61 to 63 °C
92 | Cc1c(C)c2c(c(C)c1O)C(=O)CC(CCC(C)CCCC(C)C)(COc1ccc([N+](=O)[O-])cc1)O2 (stereo not given) | 121 to 123 °C
93 | CCOC(=O)c1cnc2ccc(CC)nc2c1O | 262 to 264 °C
94 | O=c1[nH]c2ccccc2c2c(CCN3CCN(Cc4ccccc4)CC3)n(-c3ccccc3)nc12 | 211 to 212 °C
95 | COc1cc2nc(-c3ccc(Cl)cc3)nc(Cl)c2cc1OC | 204 to 206 °C
96 | CCOC(=O)Nc1c(Cl)cc2nc(O)c(O)nc2c1[N+](=O)[O-] | > 300 °C
97 | COc1cc(N(C(=O)[C@@H](N)Cc2cnc[nH]2)S(=O)(=O)c2ccc3c(ccn3C)c2)cc(OC)c1OC | 175 to 177 °C
98 | CN(C)CCNc1ccc(CNS(C)(=O)=O)c2sc3ccccc3c(=O)c12 | 126 to 127 °C
99 | C=CCS(=O)(=O)c1cccnc1S(=O)(=O)NC(=O)Nc1nc(OC)cc(OC)n1 | 185 °C
100 | CCC1(Br)Cc2c(Cl)ccc(OCC(=O)O)c2C1=O (stereo not given) | 136 to 146 °C

From a melting point compilation (Tetko et al.; mined from patent text by program, amines drawn as free bases though some values may be those of a salt)
